Data on two compounds can be found in article PMC11218721, “Receptor-Targeted Peptide Conjugates Based on Diphosphines Enable Preparation of ^99mTc and ^188Re Theranostic Agents for Prostate Cancer” (Journal of Nuclear Medicine, 2024).

The test system of series [1] is DU145-PSMA+ prostate cancer cells (DU145 cells transfected to express PSMA receptor). The experiment in a line: Radiotracer uptake in DU145-PSMA+ prostate cancer cells. The format is cell-based. The conditions noted are these: for cellular localization of radioactivity in DU145-PSMA+ cells over time: 15, 30, 60 and 120 min, surface-bound vs internalized fraction; for uptake in DU145-PSMA+ cells: 100 kBq radiotracer, 1 h incubation, percentage added radioactivity, mean ± SD, n = 3–4 biologic repeats in triplicate; for uptake in DU145-PSMA+ cells / uptake in DU145-PSMA+ cells with PMPA block: 37°C; for uptake in DU145-PSMA+ cells with PMPA block: coincubated with PSMA inhibitor PMPA, 1 h. On the procedure: (§1) Solutions containing radiotracer (100 kBq in 8–12 μL of phosphate-buffered saline, >95% radiochemical purity) were added to DU145-PSMA+ or LNCaP prostate cancer cells ([22]), and the cells were incubated at 37°C for 1 h. Nonspecific uptake was determined using non–PSMA-expressing cells (DU145, PC3) or by blocking PSMA-expressing cells (DU145-PSMA+, LNCaP) with 2-phosphonomethyl pentanedioic acid (PMPA). After incubation, the cells were washed and samples collected for radioactivity counting. Uptake and localization of ^99mTc radiotracers were measured over time (15, 30, 60, and 120 min) in DU145-PSMA+ or LNCaP cells (supplemental materials).
(§2) To assess the specificity of the new radiotracers for PSMA, [^99mTc]Tc-DP1-PSMAt and [^99mTc]Tc-DP2-PSMAt (100 kBq) were each incubated with DU145-PSMA+ prostate cancer cells (DU145 cells transfected to express PSMA receptor) ([22]). After 1 h of incubation, uptake of each radiotracer was quantified. […] In LNCaP cells, uptake of [^99mTc]Tc-DP1-PSMAt and [^99mTc]Tc-DP2-PSMAt measured 3.7 ± 1.2 %AR and 3.0 ± 0.8 %AR, respectively, whereas uptake of both radiotracers in PC3 cells measured less than 0.3 %AR.
(§3) FIGURE 2. (A) Uptake of radiotracers in PSMA-positive and PSMA-negative prostate cancer cells. (B) Time course uptake and localization of ^99mTc radiotracers in DU145-PSMA cells and LNCaP cells. Data are presented as mean ± SD; n = 3–4 biologic repeats performed in triplicate.

Series [2] deals with LNCaP prostate cancer cells, which natively express PSMA. The experiment in a line: Radiotracer uptake in LNCaP prostate cancer cells. As to conditions: for cellular localization of radioactivity in LNCaP cells over time: 15, 30, 60 and 120 min, surface-bound vs internalized fraction; for uptake in LNCaP cells: 100 kBq radiotracer, 1 h incubation, percentage added radioactivity, mean ± SD, n = 3–4 biologic repeats in triplicate; for uptake in LNCaP cells / uptake in LNCaP cells with PMPA block: 37°C; for uptake in LNCaP cells with PMPA block: blocked with PMPA, 1 h. The format is cell-based. The protocol: as §1, §2, §3

Series [3] has as its system parental DU145 cells that do not express PSMA. The experiment in a line: Radiotracer uptake in parental DU145 cells (non-PSMA-expressing). The conditions noted are these: 100 kBq, 1 h, 37°C. The format is cell-based. On the procedure: as §1, §2, §3
In series [4] the test system is PC3 cells. The series can be described thus: Radiotracer uptake in PC3 cells (non-PSMA-expressing). The class given is cell-based. As to conditions: 100 kBq, 1 h, 37°C; cells do not express PSMA. The protocol: as §1, §2, §3
In series [5] the test system is DU145-PSMA+ xenograft tumors. The experiment in a line: Ex vivo biodistribution in SCID/beige mice bearing DU145-PSMA+ xenograft tumors. As to conditions: 2 h after injection; for effect of PMPA coadministration on kidney retention (in words): SCID/beige mice bearing DU145-PSMA+ tumors; for mean difference in spleen retention, radiotracer only vs with PMPA / mean difference in tumor uptake, radiotracer only vs with PMPA: SCID/beige mice; for mean difference in tumor uptake, radiotracer only vs with PMPA: DU145-PSMA+ tumors. The protocol: (§4) All animal experiments were ethically reviewed by an Animal Welfare and Ethical Review Board at either King’s College London or Barts Cancer Institute and were performed in accordance with the Animals (Scientific Procedures) Act 1986 U.K. Home Office regulations governing animal experimentation. Subcutaneous prostate cancer DU145-PSMA+ or DU145 xenografts were produced in SCID/beige mice (male, 7–12 wk old). Subcutaneous LNCaP prostate cancer xenografts were produced in athymic nude mice (Crl:NU(NCr)-Foxn1^nu, male, 6–7 wk old). SPECT/CT and biodistribution studies using ^99mTc and ^188Re radiotracers were performed once a tumor had reached an appropriate size (supplemental materials).
The biodistributions of [^99mTc]Tc-DP1-PSMAt and [^99mTc]Tc-DP2-PSMAt were assessed in male SCID/beige mice bearing DU145-PSMA+ xenograft tumors (Fig. 3). Each mouse was administered either [^99mTc]Tc-DP1-PSMAt or [^99mTc]Tc-DP2-PSMAt and euthanized at 2 h after injection (n = 5), followed by organ harvesting for ex vivo radioactivity counting.
(§5) FIGURE 3. (A) Biodistribution (2 h after injection) of SCID/beige mice bearing DU145-PSMA+ prostate cancer tumors, administered either ^99mTc or ^188Re radiotracers intravenously. To assess specificity of radiotracer uptake, additional groups of mice were also coadministered radiotracer and PMPA (Supplemental Tables 3 and 4). (B) Whole-body SPECT/CT maximum-intensity projections of SCID/beige mice bearing either DU145-PSMA+ tumors or DU145 tumors, administered either [^99mTc]Tc-DP1-PSMAt or [^99mTc]Tc-DP2-PSMAt, 2 h after injection. To inhibit uptake in DU145-PSMA+ tumors, animals were also coadministered PMPA.
To assess the specificity of each radiotracer, separate groups of animals, also bearing DU145-PSMA+ tumors, were coadministered either [^99mTc]Tc-DP1-PSMAt and PMPA or [^99mTc]Tc-DP2-PSMAt and PMPA to inhibit PSMA-mediated uptake of radiotracer (n = 5). […] For [^99mTc]Tc-DP1-PSMAt, coadministration decreased uptake to 0.91 ± 0.29 %ID/g in tumors (compared with administration of [^99mTc]Tc-DP1-PSMAt only: mean difference of 17.12 %ID/g, P = 4 × 10^−4). For [^99mTc]Tc-DP2-PSMAt, coadministration decreased uptake to 0.76 ± 0.45 %ID/g in tumors (compared with administration of [^99mTc]Tc-DP2-PSMAt only: mean difference of 28.62 %ID/g, P = 5 × 10^−4).

Series [6] concerns DU145-PSMA+ tumors. The experiment in a line: SPECT/CT imaging of mice bearing DU145-PSMA+ tumors. The conditions noted are these: radiotracer only, 2 h and 24 h after injection. The class given is in vivo, SCID/beige mice. The protocol: as §4
as §5, with “PMPA. […]” for “PMPA.”

Turning to `O=C(O)CC[C@H](NC(=O)N[C@@H](CCCCNC(=O)CCOCCOCCOCCOCCNC(=O)/C(=C(\C(=O)O)P(c1ccccc1)c1ccccc1)P(c1ccccc1)c1ccccc1)C(=O)O)C(=O)O` [[^99mTc]Tc-DP1-PSMAt] [metal not drawn], in series [1], the “cellular localization of radioactivity in DU145-PSMA+ cells over time” value is listed as “most cell-associated radioactivity was found in the internalized cell fraction”, the “uptake in DU145-PSMA+ cells” value turned out to be 12.4 ± 2.8 %AR and the “uptake in DU145-PSMA+ cells with PMPA block” value is “could be blocked with PMPA”. In series [2], the “cellular localization of radioactivity in LNCaP cells over time” value is listed as “most cell-associated radioactivity was found in the internalized cell fraction”, the “uptake in LNCaP cells” value stood at 3.7 ± 1.2 %AR and the “uptake in LNCaP cells with PMPA block” value is listed as “could also be blocked with PMPA”. Besides, the “uptake in parental DU145 cells” value in series [3] is on record as “negligible uptake”. Also, the “uptake in PC3 cells” value in series [4] is “less than 0.3 %AR”. Besides, in series [5], the “effect of PMPA coadministration on kidney retention (in words)” value is given as “significantly decreased”; the “mean difference in spleen retention, radiotracer only vs with PMPA” value was 11.8 %ID/g; the “mean difference in tumor uptake, radiotracer only vs with PMPA” value is listed as 17.12 %ID/g. The “tumor delineation in SPECT/CT scans” value in series [6] is reported as “tumors could be clearly delineated”.
In the case of `Cc1ccc(P(/C(C(=O)O)=C(/C(=O)NCCOCCOCCOCCOCCC(=O)NCCCC[C@H](NC(=O)N[C@@H](CCC(=O)O)C(=O)O)C(=O)O)P(c2ccc(C)cc2)c2ccc(C)cc2)c2ccc(C)cc2)cc1` [[^99mTc]Tc-DP2-PSMAt] [metal not drawn], in series [1], the “cellular localization of radioactivity in DU145-PSMA+ cells over time” value is recorded as “most cell-associated radioactivity was found in the internalized cell fraction”, the “uptake in DU145-PSMA+ cells” value turned out to be 7.8 ± 1.3 %AR and the “uptake in DU145-PSMA+ cells with PMPA block” value is listed as “could be blocked with PMPA”. In series [2], the “cellular localization of radioactivity in LNCaP cells over time” value is recorded as “most cell-associated radioactivity was found in the internalized cell fraction”, the “uptake in LNCaP cells” value is 3.0 ± 0.8 %AR and the “uptake in LNCaP cells with PMPA block” value is “could also be blocked with PMPA”. Also, the “uptake in parental DU145 cells” value in series [3] is on record as “negligible uptake”. Also, the “uptake in PC3 cells” value in series [4] is given as “less than 0.3 %AR”. In series [5], the “effect of PMPA coadministration on kidney retention (in words)” value is “much less pronounced”; the “mean difference in spleen retention, radiotracer only vs with PMPA” value worked out at 7.4 %ID/g; the “mean difference in tumor uptake, radiotracer only vs with PMPA” value was determined as 28.62 %ID/g. Also, the “tumor delineation in SPECT/CT scans” value in series [6] is reported as “tumors could be clearly delineated”.
